Patent US12622899B2 (PureTech LYT 100, Inc., priority 2018, dated 2026)
Entries after “also recorded” stand apart in the source; their conditions may differ.

Columns and labels:
clinical = details: both sexes, human, in vivo, 550 mg
Experimental: Over-encapsulation was utilized to maintain study blind. […] Approximately 50 older healthy female and male adult subjects (1:1 ratio) were randomized into 1 of 2 cohorts:Cohort 1 or Cohort 2, N=˜25 subjects per cohort.
There was a single AM fasting dose on Day 4 for both drugs. There was a 6-day wash-out period between drug cross-over.
Subjects were discharged on Day 4 following successful completion of all assessments and at the Investigator's discretion.
Subjects were then administered a single dose of their randomized treatment on the morning of Day 14 following an overnight fast of at least 8 hours. Subjects were discharged on Day 14 following successful completion of all assessments and at the Investigator's discretion.
An evening snack was served ≥3 hours following evening study medication administration. On Day 4 (Treatment Period 1) and Day 14 (Treatment Period 2), subjects were administered their assigned study drug once in the morning following an overnight fast of at least 8 hours (with approximately 240 mL of non-carbonated water). No additional fluids were allowed during the 1 hour pre- and post-dose.
Blood samples for PK were collected for Cohorts 1 and 2 at specified times during both periods, as follows: • Days 1 & 11:0 (pre-morning dose) • Days 2 & 12: no sampling. • Days 3 & 13:0 (pre-morning dose), and 1, 2, 3, 4, 6 (pre-mid-day dose), 7, 8, 9, 10, 12 (pre-evening dose), 13, 14, 15, 16, and 17 hours post-morning dose • Days 4 & 14:0 (pre-morning dose), and 1, 2, 3, 4, 6 (post-dose),

[1] = system: patients with Idiopathic Pulmonary Fibrosis (IPF); test: IPF trial Part A: safety and tolerability (TEAEs, AESI, dose modifications, discontinuations); assay type: in vivo
Experimental: The primary objective was to determine the dose(s) to carry into Phase 3. […] Patients were randomized to one of the four treatments in a 1:1:1:1 ratio and stratified based on prior exposure to nintedanib (<6 months) versus nintedanib-naïve patients. Patients who completed the Double-blind Treatment Period (Part A) were offered participation in the Long-term Extension (Part B). […] For patients who participated in Part B, the follow-up was conducted at the end of Part B. A graphical illustration of an embodiment of the trial design is provided as FIG. 24B.
Safety endpoints included: Adverse events, concomitant medications, clinical laboratory findings (chemistry, hematology, urinalysis), physical examinations, ECGs, and vital signs. These will be summarized descriptively, where appropriate.
Tolerability endpoints included: Frequency of dose modifications (reductions and interruptions), time to first dose modification, (reduction or interruption), duration of adverse events of special interest, time to treatment discontinuation due to an adverse event of special interest and patient reported assessment of IPF symptoms, side-effects, severity, change and satisfaction.
In this study, AEs are reported for all patients from the time of consent until the completion of the Follow-up visit. AEs reported prior to the first dose are denoted as pre-treatment. SAEs are reported for all patients (randomized or not) from the time of consent. AEs reported from the time of consent to confinement on Day 0 were recorded as pre-treatment AEs.
Treatment emergent adverse events (TEAEs) are defined as an AE that occurs following first dose of study medication and were evaluated from the first administration of study drug on Day 1 until the Follow-up visit. […]
This study evaluated in particular the tolerability based on prioritized gastrointestinal adverse events (GI AEs). […]

CYP2D6 = molecular target: T1, CYP2D6 (Homo sapiens, UniProt P10635); test: In vitro stability with recombinant human CYP2D6; assay type: in vitro ADME; details: recombinant human isozyme; read-out: t1/2 following incubation with CYP2D6 (converted)
T1 construct: host or cells: heterologous cell systems (not specified)
T1 sequence (P10635 whole entry): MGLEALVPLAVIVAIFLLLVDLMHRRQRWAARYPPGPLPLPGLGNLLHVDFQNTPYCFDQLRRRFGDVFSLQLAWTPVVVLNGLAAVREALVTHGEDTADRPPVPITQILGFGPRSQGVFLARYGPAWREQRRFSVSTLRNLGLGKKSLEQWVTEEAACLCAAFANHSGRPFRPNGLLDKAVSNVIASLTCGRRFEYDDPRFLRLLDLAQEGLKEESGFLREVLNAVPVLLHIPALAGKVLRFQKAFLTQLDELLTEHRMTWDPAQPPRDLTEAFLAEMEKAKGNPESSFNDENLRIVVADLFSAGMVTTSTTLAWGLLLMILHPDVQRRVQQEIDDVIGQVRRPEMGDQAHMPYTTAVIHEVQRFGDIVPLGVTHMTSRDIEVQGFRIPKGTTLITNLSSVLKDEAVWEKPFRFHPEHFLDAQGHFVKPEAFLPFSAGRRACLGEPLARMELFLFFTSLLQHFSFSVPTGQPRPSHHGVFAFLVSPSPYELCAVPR
Experimental: The half-life (t½) of each test article was determined.

[2] = system: rat BLM induced lung fibrosis model; details: in vivo, 400 mg/kg
Experimental: (§1) For Groups 4, 5, 6, and 7, bleomycin and vehicle dosing were conducted as indicated in Table 28 (0.45 mg/kg, at 1696 IU/mg of Bleomycin or saline on Day 1, 2, 3, 6 and 7).

[3] = system: rat BLM induced lung fibrosis model; test: Rat bleomycin induced lung fibrosis model, Phase II (efficacy); details: bleomycin rats, LYT-100 400 mg/kg QD / nintedanib 60 mg/kg BID
Experimental: as §1

healthy older adults = test: Study LYT-100-2021-103 Part 3 (Example 2): safety and tolerability vs placebo; details: for Abdominal Pain/Discomfort/Distension, adverse events / Diarrhea, adverse events / Dizziness, adverse events / Dyspepsia, adverse events / GI Disorders, adverse events / Headache, adverse events / Nausea, adverse events / Nervous System Disorders, adverse events / Vomiting, adverse events: fed, N=13
Experimental: Only subjects who met all the applicable inclusion and none of the applicable exclusion criteria were randomized.
Safety and tolerability were assessed by monitoring AEs, physical examination, vital signs, 12-lead ECGs, clinical laboratory values (hematology panel, multiphasic chemistry panel and urinalysis), and review of concomitant treatments/medication use.

[4] = Part 3 safety population, LYT-100 550 mg TID Days 1-3 then 824 mg TID Days 4-6, N=24

## [2H]C([2H])([2H])c1ccc(=O)n(-c2ccccc2)c1 [LYT-100, 5-(methyl-d3)-1-phenylpyridin-2-(1H)-one]
clinical; AUC0-24, parent
  AUC(0-t): 34100 ng·h/mL
clinical; Cmax, parent
  Cmax: 9170 ng/mL
[1]; 550 mg TID (N = 65)
  Discontinued, Primary Reason: Death: 0 n (%)
[1]; 825 mg TID (N = 64)
  Discontinued, Primary Reason: Death: 0 n (%)
CYP2D6
  half-life: 2.72 h
[2]
  tolerability: well tolerated
[3]; Day 8-27
  hydroxyproline content (μg per mg of wet lung) vs bleomycin/vehicle: reduced the hydroxyproline content; also recorded: reduced lung hydroxyproline content
  lung fibrosis scores (histopathology) vs bleomycin/vehicle: did not affect the fibrosis scores
  lung sections with fibrosis Score 1: 33%
  lung sections with fibrosis Score 2: 36%
  mean lung weight vs bleomycin/vehicle: did not affect mean lung weight
  median lung fibrosis scores vs bleomycin/vehicle: reduced median fibrosis scores
  total left lung hydroxyproline (μg per left lung) vs bleomycin/vehicle: did not affect total hydroxyproline levels
[3]; oral gavage Day 8-27
  body weight gain: resumed and at a rate similar to Group 4; also recorded: did not negatively affect body weight developments
Healthy older adults; Part 3
  deaths or SAEs: No deaths or SAEs
Healthy older adults; Part 3, LYT-100 550 mg TID
  Abdominal Pain/Discomfort/Distension, adverse events: 0 n (%)
  Diarrhea, adverse events: 1 (4.2) n (%)
  Dizziness, adverse events: 1 (4.2) n (%)
  Dyspepsia, adverse events: 1 (4.2) n (%)
  GI Disorders, adverse events: 2 (8.3) n (%)
  Headache, adverse events: 3 (12.5) n (%)
  Nausea, adverse events: 0 n (%)
  Nervous System Disorders, adverse events: 3 (12.5) n (%)
  Vomiting, adverse events: 0 n (%)
Healthy older adults; Part 3, LYT-100 824 mg TID, 3 treatment days
  tolerability: well tolerated
Healthy older adults; Part 3, LYT-100 824 mg TID
  Abdominal Pain/Discomfort/Distension, adverse events: 0 n (%)
  Diarrhea, adverse events: 0 n (%)
  Dizziness, adverse events: 0 n (%)
  Dyspepsia, adverse events: 0 n (%)
  GI Disorders, adverse events: 0 n (%)
  Headache, adverse events: 0 n (%)
  Nausea, adverse events: 0 n (%)
  Nervous System Disorders, adverse events: 0 n (%)
  Vomiting, adverse events: 0 n (%)
Healthy older adults; Part 3, LYT-100 group N=24
  subjects discontinued due to a TEAE (all Covid-19): 3 (12.5%) n (%)
  subjects with at least one TEAE: 8 (33.3%) n (%)
  subjects with mild TEAEs: 7 (29.2%) n (%)
Healthy older adults; [4]
  COVID-19 TEAE: 4 (16.7) n (%)
  Headache TEAE: 3 (12.5) n (%)
